Assay results published in patent publication US8796328B2, “TRPV1 antagonists” (AbbVie Inc., priority 2012, dated 2014).

Tests used:
[1] = target: T1, human TRPV1 receptor (hTRPV1) (Homo sapiens (Human), UniProt Q8NER1); assay: Capsaicin activation assay (FLIPR intracellular Ca2+); type: cell-based; details: inhibition of capsaicin-induced intracellular Ca2+ increase; compounds added 3 minutes prior to capsaicin; read-out: hTRPV1 cap. IC50
Method: Dulbecco's modified Eagle medium (D-MEM) (with 4.5 mg/mL glucose) and fetal bovine serum were obtained from Hyclone Laboratories, Inc. (Logan, Utah). Dulbecco's phosphate-buffered saline (D-PBS) (with 1 mg/mL glucose and 3.6 mg/l Na pyruvate, without phenol red), L-glutamine, hygromycin B, and Lipofectamine® were obtained from Life Technologies (Grand Island, N.Y.). G418 sulfate was obtained from Calbiochem-Novabiochem Corp. (San Diego, Calif.). Capsaicin (8-methyl-N-vanillyl-6-nonenamide) was obtained from Sigma-Aldrich, Co. (St. Louis, Mo.). Fluo-4 AM (N-[4-[6-[(acetyloxy)methoxy]-2,7-difluoro-3-oxo-3H-xanthen-9-yl]-2-[2-[2-[bis[2-[(acetyloxy)methoxy]-2-oxyethyl]amino]-5-methylphenoxy]ethoxy]phenyl]-N-[2-[(acetyloxy)methoxy]-2-oxyethyl]-glycine, (acetyloxy)methyl ester) was purchased from Molecular Probes (Eugene, Oreg.).
(§1) The cDNAs for the human TRPV1 receptor (hTRPV1) were isolated by reverse transcriptase-polymerase chain reaction (RT-PCR) from human small intestine poly A+ RNA supplied by Clontech (Palo Alto, Calif.) using primers designed surrounding the initiation and termination codons identical to the published sequences (Hayes et al. Pain 2000, 88, 205-215). The resulting cDNA PCR products were subcloned into pCIneo mammalian expression vector (Promega) and fully sequenced using fluorescent dye-terminator reagents (Prism, Perkin-Elmer Applied Biosystems Division) and a Perkin-Elmer Applied Biosystems Model 373 DNA sequencer or Model 310 genetic analyzer. Expression plasmids encoding the hTRPV1 cDNA were transfected individually into 1321N1 human astrocytoma cells using Lipofectamine®. Forty-eight hours after transfection, the neomycin-resistant cells were selected with growth medium containing 800 μg/mL Geneticin (Gibco BRL). Surviving individual colonies were isolated and screened for TRPV1 receptor activity. Cells expressing recombinant homomeric TRPV1 receptors were maintained at 37° C. in D-MEM containing 4 mM L-glutamine, 300 μg/mL G418 (Cal-biochem) and 10% fetal bovine serum under a humidified 5% CO2 atmosphere.
The functional activity of compounds at the TRPV1 receptor was determined by measurement of intracellular Ca^2+ levels ([Ca^2]i) using the Fluorescence Imaging Plate Reader (FLIPR)^TETRA®. All compounds were tested over a 12-point one-third-log concentration range. Compound stocks, 10 mM, were prepared in DMSO, and diluted serially across a 384-well plate using a Bravo BenchCel workstation (Agilent Technologies, Santa Clara, Calif.). A stock concentration of capsaicin (10 mM) was made in DMSO, and diluted in D-PBS to a final concentration of 200 nM (4×). On the day prior to the experiment, recombinant HEK293 cells that stably express either human or rat TRPV1 (hTRPV1-3) were removed from tissue culture flasks and plated in growth medium into black-walled clear-bottom 384-well Biocoat™ poly-D-lysine assay plates (BD Biosciences, Bedford, Mass.) using a Multidrop® dispenser (ThermoScientific, Waltham, Mass.). On the day of the experiment, growth medium was removed, and the no-wash FLIPR® Calcium-4 dye (λEX=470-495 nm, λEM=515-575 nm; Molecular Devices, Sunnyvale, Calif.) was added to each well using the Multidrop® dispenser. Cells were incubated for 90-120 minutes in the dark at room temperature. Test compounds were added to the cells 3 minutes prior to the addition of 200 nM capsaicin (4×), and the final assay volume was 80 μL. Fluorescence readings were made at 1 to 5 second intervals over the course of the experimental run. The peak increase in relative fluorescence units (minus baseline) was calculated, and expressed as a percentage of the 50 nM capsaicin (control) response. Curve-fits of the data were solved using a four-parameter logistic Hill equation in GraphPad Prism® (GraphPad Software, Inc., San Diego, Calif.), and IC50 values (concentration of the test compounds that inhibits 50% of the intracellular Ca^2+ concentration increase induced by capasin) were calculated.

[2] = target: T1, human TRPV1 receptor (hTRPV1); assay: Acid activation assay (pH 5.0, FLIPR intracellular Ca2+); type: cell-based; details: 37.5 μM compound, percentage of the maximal pH 5.0-induced response remaining; for remaining activity at 37.5 µM: read-out: hTRPV1 H+ (max % remain)
Method: Dulbecco's modified Eagle's medium (DMEM) with 4.5 mg/mL D-glucose, fetal bovine serum, L-glutamine, and 2-morpholinoethanesulfonic acid (MES) were purchased from Sigma-Aldrich Co. (St. Louis, Mo.). Dulbecco's phosphate-buffered saline (DPBS) with Ca^2+, Mg^2+, and 1 mg/mL D-glucose (pH 7.4), Geneticin®, 0.25% trypsin-1 mM EDTA, and penicillin-streptomycin were purchased from Invitrogen Corp. (Carlsbad, Calif.). The FLIPR® Calcium 4 assay kit was purchased from Molecular Devices (Sunnyvale, Calif.).
as §1, with “DMEM” for “D-MEM”
The functional activity of compounds at the TRPV1 receptor was determined by measurement of intracellular Ca^2+ levels ([Ca^2+]i) using the Fluorescence Imaging Plate Reader (FLIPR)^TETRA®. All compounds were tested over a 12-point one-half-log concentration range. Compound stocks, 10 mM, were prepared in DMSO, and diluted serially across a 384-well plate using a Bravo BenchCel workstation (Agilent Technologies, Santa Clara, Calif.).
On the day of the experiment growth medium was removed, and the no-wash FLIPR®Calcium-4 dye (λEX=470-495 nm, λEM=515-575 nm) was added to each well using the Multidrop® dispenser. Cells were incubated for 90-120 minutes in the dark at 25° C. Test compounds were dissolved in DMSO, and plates were prepared using an Agilent Bravo workstation (Agilent Technologies Inc., Santa Clara, Calif.). Compounds were added to the cells 3 minutes prior to the addition of a pH 5.0 solution. Reagents were delivered at a rate of 40 μL/sec, and the final assay volume was 80 μL. Acidic pH solutions were prepared by titration of DPBS/MES with 1 N HCl. The intensity of the fluorescence was captured and digitally transferred to an interfaced PC.

T1 sequence (Q8NER1 whole entry): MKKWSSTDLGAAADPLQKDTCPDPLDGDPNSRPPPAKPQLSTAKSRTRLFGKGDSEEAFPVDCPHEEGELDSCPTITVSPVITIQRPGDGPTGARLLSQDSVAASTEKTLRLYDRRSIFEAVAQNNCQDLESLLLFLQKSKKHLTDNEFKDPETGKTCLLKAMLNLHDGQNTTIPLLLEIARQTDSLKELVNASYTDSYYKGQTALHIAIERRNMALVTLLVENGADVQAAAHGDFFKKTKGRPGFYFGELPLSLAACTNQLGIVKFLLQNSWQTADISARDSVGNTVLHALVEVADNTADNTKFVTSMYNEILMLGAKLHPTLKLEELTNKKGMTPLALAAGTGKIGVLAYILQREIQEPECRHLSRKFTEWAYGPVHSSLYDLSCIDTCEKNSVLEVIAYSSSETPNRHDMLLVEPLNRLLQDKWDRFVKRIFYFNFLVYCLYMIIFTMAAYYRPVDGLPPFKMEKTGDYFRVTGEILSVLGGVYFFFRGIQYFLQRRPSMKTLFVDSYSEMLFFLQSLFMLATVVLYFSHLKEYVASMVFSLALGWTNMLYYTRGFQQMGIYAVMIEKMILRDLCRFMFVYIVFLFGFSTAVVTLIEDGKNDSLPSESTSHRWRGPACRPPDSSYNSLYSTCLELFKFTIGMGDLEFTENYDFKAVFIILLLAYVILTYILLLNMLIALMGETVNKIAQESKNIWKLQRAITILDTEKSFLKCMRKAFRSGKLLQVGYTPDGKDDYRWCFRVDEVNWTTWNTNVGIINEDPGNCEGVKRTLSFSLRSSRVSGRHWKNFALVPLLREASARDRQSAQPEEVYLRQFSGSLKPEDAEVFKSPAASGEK

| IC50 [1] | remaining activity at 37.5 µM [2] | hTRPV1 H+ (max % remain) [2] | SMILES |
| --- | --- | --- | --- |
| 0.466 µM | 82% |  | CCC1(CC)C[C@@H](NC(=O)NCc2ccc(NS(C)(=O)=O)c(F)c2)c2ccc(OC(F)(F)F)cc2O1 [Example 19, N-{4-[({[(4R)-2,2-diethyl-7-(trifluoromethoxy)-3,4-dihydro-2H-chromen-4-yl]carbamoyl}amino)methyl]-2-fluorophenyl}methanesulfonamide] |
| 0.791 µM | 60% |  | CS(=O)(=O)Nc1ccc(CNC(=O)N[C@@H]2CC(CF)(CF)Oc3c2ccc(Cl)c3F)cc1F [Example 20, N-{4-[({[(4R)-7-chloro-8-fluoro-2,2-bis(fluoromethyl)-3,4-dihydro-2H-chromen-4-yl]carbamoyl}amino)methyl]-2-fluorophenyl}methanesulfonamide] |
| 7.56 µM | 74% |  | CC1(C)C[C@@H](NC(=O)NCc2ccc(NS(C)(=O)=O)c(F)c2)c2ccccc2O1 [Example 21, N-{4-[({[(4R)-2,2-dimethyl-3,4-dihydro-2H-chromen-4-yl]carbamoyl}amino)methyl]-2-fluorophenyl}methanesulfonamide] |
| 7.59 µM | 71% |  | CC1(C)C[C@@H](NC(=O)NCc2ccc(NS(C)(=O)=O)c(F)c2)c2cc(F)ccc2O1 [Example 22, N-{2-fluoro-4-[({[(4R)-6-fluoro-2,2-dimethyl-3,4-dihydro-2H-chromen-4-yl]carbamoyl}amino)methyl]phenyl}methanesulfonamide] |
| 0.358 µM | 24% |  | CC1(C)C[C@@H](NC(=O)NCc2ccc(NS(C)(=O)=O)c(F)c2)c2ccc(F)c(Cl)c2O1 [Example 23, N-{4-[({[(4R)-8-chloro-7-fluoro-2,2-dimethyl-3,4-dihydro-2H-chromen-4-yl]carbamoyl}amino)methyl]-2-fluorophenyl}methanesulfonamide] |
| > 37.5 µM |  | 77% | CS(=O)(=O)Nc1ccc(CNC(=O)N[C@H]2CCOc3cc(OC(F)(F)F)ccc32)cc1F [Example 24, N-{2-fluoro-4-[({[(45)-7-(trifluoromethoxy)-3,4-dihydro-2H-chromen-4-yl]carbamoyl}amino)methyl]phenyl}methanesulfonamide] |
| 0.602 µM | 70% |  | CC1(C)C[C@@H](NC(=O)NCc2ccc(NS(C)(=O)=O)c(F)c2)c2ccc(Cl)cc2O1 [Example 25, N-{4-[({[(4R)-7-chloro-2,2-dimethyl-3,4-dihydro-2H-chromen-4-yl]carbamoyl}amino)methyl]-2-fluorophenyl}methanesulfonamide] |
| > 37.5 µM | 84% |  | CS(=O)(=O)Nc1ccc(CNC(=O)N[C@@H]2CCOc3cc(OC(F)(F)F)ccc32)cc1F [Example 26, N-{2-fluoro-4-[({[(4R)-7-(trifluoromethoxy)-3,4-dihydro-2H-chromen-4-yl]carbamoyl}amino)methyl]phenyl}methanesulfonamide] |
| 22.5 µM | 59% |  | CS(=O)(=O)Nc1ccc(CNC(=O)N[C@@H]2CC(CF)(CF)Oc3ccccc32)cc1F [Example 27, N-{4-[({[(4R)-2,2-bis(fluoromethyl)-3,4-dihydro-2H-chromen-4-yl]carbamoyl}amino)methyl]-2-fluorophenyl}methanesulfonamide] |
| 29.5 µM | 68% |  | CS(=O)(=O)Nc1ccc(CNC(=O)N[C@@H]2CC(CF)(CF)Oc3c(F)cccc32)cc1F [Example 28, N-{2-fluoro-4-[({[(4R)-8-fluoro-2,2-bis(fluoromethyl)-3,4-dihydro-2H-chromen-4-yl]carbamoyl}amino)methyl]phenyl}methanesulfonamide] |
| 1.15 µM | 27% |  | CC1(C)C[C@@H](NC(=O)NCc2ccc(NS(C)(=O)=O)c(F)c2)c2ccc(F)c(F)c2O1 [Example 29, N-{4-[({[(4R)-7,8-difluoro-2,2-dimethyl-3,4-dihydro-2H-chromen-4-yl]carbamoyl}amino)methyl]-2-fluorophenyl}methanesulfonamide] |
| > 37.5 µM | 84% |  | CS(=O)(=O)Nc1ccc(CNC(=O)N[C@@H]2CCOc3ccc(F)cc32)cc1F [Example 30, N-{2-fluoro-4-[({[(4R)-6-fluoro-3,4-dihydro-2H-chromen-4-yl]carbamoyl}amino)methyl]phenyl}methanesulfonamide] |
| 3.8 µM | 77% |  | CS(=O)(=O)Nc1ccc(CNC(=O)N[C@@H]2CCOc3c2cccc3C(F)(F)F)cc1F [Example 31, N-{2-fluoro-4-[({[(4R)-8-(trifluoromethyl)-3,4-dihydro-2H-chromen-4-yl]carbamoyl}amino)methyl]phenyl}methanesulfonamide] |
| 0.913 µM | 88% |  | CS(=O)(=O)Nc1ccc(CNC(=O)N[C@@H]2CCOc3cc(C(F)(F)F)ccc32)cc1F [Example 32, N-{2-fluoro-4-[({[(4R)-7-(trifluoromethyl)-3,4-dihydro-2H-chromen-4-yl]carbamoyl}amino)methyl]phenyl}methanesulfonamide] |
| 23.1 µM |  | 101% | CS(=O)(=O)Nc1ccc(CNC(=O)N[C@H]2CC3(CCC3)Oc3ccc(F)cc32)cc1F [Example 33, N-{2-fluoro-4-[({[(45)-6-fluoro-3,4-dihydrospiro[chromene-2,1′-cyclobutan]-4-yl]carbamoyl}amino)methyl]phenyl}methanesulfonamide] |
